Measured values as given in US8440713B2, “[1]benzothieno[3,2-B][1]benzothiophene compound and method for producing the same, and organic electronic device using the same” (Ricoh Company, Ltd., priority 2008, dated 2013).

Assay: Solubility of the precursor in chloroform, toluene and THF (solution left to stand, precipitation observed)
Type: physicochemical
Conditions: for Solubility: toluene, THF, 1% or 5% by mass, left to stand 12 hours at room temperature
Description: Precursor 1 synthesized in Example 1 was dissolved respectively in chloroform, toluene and THF so as to be contained therein in concentrations of 1.0% by mass and 5.0% by mass, and then passed through a filter so as to prepare each solution.
The evaluation criteria of the solubility in Table 1 are as follows:
A: No precipitation of a solute was observed when a precursor was dissolved in each solution so as to be contained in a concentration of 5% by mass, and then left to stand for 12 hours at a room temperature.
B: No precipitation of a solute was observed when a precursor was dissolved in each solution so as to be contained in a concentration of 1% by mass, and then left to stand for 12 hours at a room temperature.
C: Precipitation of a solute was observed when a precursor was dissolved in each solution so as to be contained in a concentration of 1% by mass, and then left to stand for 12 hours at a room temperature.

Compound	Solubility	solute separation from solution (toluene and THF, 1.0% by mass and 5.0% by mass, filtered, left to stand over night at room temperature)
c1ccc(-c2ccc3c(c2)sc2c4ccc(-c5ccccc5)cc4sc32)cc1 [Comparative Example 1, 2,7-diphenyl [1]benzothieno[3,2-b][1]benzothiophene, reference compound]	C (Precipitation of a solute was observed when a precursor was dissolved in each solution so as to be contained in a concentration of 1% by mass, and then left to stand for 12 hours at a room temperature.)	–
CCCCCCCCc1ccc2c(c1)sc1c3ccc(CCCCCCCC)cc3sc21 [Comparative Example 2, 2,7-dioctyl[1]benzothieno[3,2-b][1]benzothiophene, reference compound]	B (No precipitation of a solute was observed when a precursor was dissolved in each solution so as to be contained in a concentration of 1% by mass, and then left to stand for 12 hours at a room temperature.)	–
CCCCCCC(CCCC)C(=O)OC(CC)c1ccc(-c2ccc3c(c2)sc2c4ccc(-c5ccc(C(CC)OC(=O)C(CCCC)CCCCCC)s5)cc4sc32)s1 (stereo not shown) [Example 13]	A (No precipitation of a solute was observed when a precursor was dissolved in each solution so as to be contained in a concentration of 5% by mass, and then left to stand for 12 hours at a room temperature.)	solute separation was not observed at all in any solvent and concentration
CCCCCCC(CCCC)C(=O)OC(CC)c1ccc(-c2ccc3c(c2)sc2c4ccc(-c5ccc(C(CC)OC(=O)C(CCCC)CCCCCC)cc5)cc4sc32)cc1 (stereo not shown) [Example 14]	A (No precipitation of a solute was observed when a precursor was dissolved in each solution so as to be contained in a concentration of 5% by mass, and then left to stand for 12 hours at a room temperature.)	–
CCCCCCC(CCCC)C(=O)OC(CC)c1ccc(-c2ccc(-c3ccc4c(c3)sc3c5ccc(-c6ccc(-c7ccc(C(CC)OC(=O)C(CCCC)CCCCCC)s7)s6)cc5sc43)s2)s1 (stereo not shown) [Example 15]	A (No precipitation of a solute was observed when a precursor was dissolved in each solution so as to be contained in a concentration of 5% by mass, and then left to stand for 12 hours at a room temperature.)	–
CCCCSC(=S)OC(CC)c1ccc(-c2ccc3c(c2)sc2c4ccc(-c5ccc(C(CC)OC(=S)SCCCC)s5)cc4sc32)s1 (stereo not shown) [Example 16]	A (No precipitation of a solute was observed when a precursor was dissolved in each solution so as to be contained in a concentration of 5% by mass, and then left to stand for 12 hours at a room temperature.)	–
